Data set [1] concerns the target Gamma-secretase. In words: Inhibition of gamma secretase in APP-transfected CHO cells. It counts as cell-based, Homo sapiens.
In data set [2] the target is Gamma-secretase. Briefly: Displacement of [3H]succinamide from gamma secretase in THP1 cell membranes. The arrangement: species or system Homo sapiens. Particulars: thp-1. For orientation: Loss of bound radioactivity is the signal in a displacement assay; it reports binding, not function.
Data set [3] can be described thus: Half life in Beagle dog at 0.5 mg/kg, po. It counts as ADME, organism-based, Canis lupus familiaris. The arrangement: dose 0.5 mg/kg, route oral. Conditions: in vivo.
Data set [4] in a line: Clearance in Beagle dog at 0.5 mg/kg, po. Type of data set: ADME, organism-based, Canis lupus familiaris. The arrangement: dose 0.5 mg/kg, route oral. Particulars: in vivo.
The subject of a further data set is Canis familiaris. In words: Volume of distribution at steady state in Beagle dog at 0.5 mg/kg, po. Type of data set: ADME, organism-based, Canis lupus familiaris. The arrangement: dose 0.5 mg/kg, route oral. Conditions: in vivo.
Data set [5] can be described thus: Fraction unbound ligand in Beagle dog at 0.5 mg/kg, po. Type of data set: ADME, organism-based, Canis lupus familiaris. More on the design: dose 0.5 mg/kg, route oral. Particulars: in vivo.
Data set [6] is described as follows: Oral bioavailability in Beagle dog at 0.5 mg/kg, po. Particulars: in vivo. Type of data set: ADME, organism-based, Canis lupus familiaris.
Data set [7] is described as follows: Cmax in Beagle dog at 0.5 mg/kg, po. It counts as ADME, organism-based, Canis lupus familiaris. The arrangement: dose 0.5 mg/kg, route oral. Conditions: in vivo.
Data set [8] concerns the target Gamma-secretase. Briefly: Inhibition of gamma secretase-mediated beta amyloid production in NIH3T3 cells. It counts as cell-based, Homo sapiens.

On to `CC(C)CNC(=O)C1(C(=O)N[C@H]2N=C(c3ccc(C(F)(F)F)cc3)c3ccccc3N(C)C2=O)CCC1`, for which the IC50 against Gamma-secretase [1] amounted to 28 nM. At Gamma-secretase [2], this molecule came in with a Ki of 1.2 nM.

Consider `CCCCNC(=O)C1(C(=O)N[C@H]2N=C(c3ccccc3)c3ccccc3N(C)C2=O)CCC1`, for which the IC50 against Gamma-secretase [1] came to 20 nM. For the same molecule, on Gamma-secretase [2], the affinity, expressed as Ki, was 11 nM.

The molecule `CC(C)CNC(=O)C1(C(=O)N[C@H]2N=C(c3ccccc3)c3ccccc3N(C)C2=O)CCC1` had a half-life in [3] of 5.3 h. Moreover, in [4], the CL/F was 21.7 mL/min/kg. The same molecule came in with a Vdss with Canis familiaris of 3.1 L/kg. Further, in data set [5], the fraction unbound came out at 0.004. The IC50 against Gamma-secretase [1] stood at 21 nM. This molecule also showed a bioavailability in data set [6] of 42%. The molecule further gave a Cmax in data set [7] of 84 nM. The same molecule displayed a Ki on Gamma-secretase [2] of 3.5 nM.

`CN1C(=O)[C@@H](NC(=O)C2(C(=O)NCCC3CCCC3)CCCC2)N=C(c2ccccc2)c2ccccc21`: at Gamma-secretase [2], the Ki turned out to be 36 nM. That is a double-digit nanomolar value.

At Gamma-secretase [1], `CC(C)[C@H](O)NC(=O)C1(C(=O)N[C@H]2N=C(c3ccc(C(F)(F)F)cc3)c3ccccc3N(C)C2=O)CCC1` registered an IC50 of 6.7 nM. The molecule also returned a Ki on Gamma-secretase [2] of 1.1 nM.

`CCNC(=O)C(CC)(CC)C(=O)N[C@H]1N=C(c2ccccc2)c2ccccc2N(C)C1=O` registered a Ki on Gamma-secretase [2] of 1000 nM.

In turn, `CN1C(=O)[C@@H](NC(=O)C2(C(=O)NCc3cc(F)cc(F)c3)CCCC2)N=C(c2ccccc2)c2ccccc21` displayed an IC50 at Gamma-secretase [1] of 96 nM. Further, the Ki on Gamma-secretase [2] turned out to be 9.9 nM.

The molecule `CN1C(=O)[C@@H](NC(=O)C2(C(=O)NCCC3CCCC3)CCC2)c2ccccc2-c2ccccc21` showed a half-life in [3] of 13.4 h. In addition, in data set [4], the CL/F is 5 mL/min/kg. This molecule had a Vdss in the data set on Canis familiaris of 2.9 L/kg. For the same molecule, the fraction unbound in data set [5] worked out at 0.002. This molecule came in with an IC50 at Gamma-secretase [1] of 21 nM. In [6], this molecule gave a bioavailability of 71%. In addition, the concentration in data set [7] peaked (Cmax) at 365 nM. The affinity at Gamma-secretase [2], expressed as Ki, was 1.3 nM.

As to `CN1C(=O)[C@@H](NC(=O)C2(C(=O)N[C@@H](O)C3CCCCC3)CCC2)N=C(c2ccc(C(F)(F)F)cc2)c2ccccc21`, the IC50 against Gamma-secretase [1] was 11 nM. The Ki on Gamma-secretase [2] is 3.1 nM.

Turning to `CN1C(=O)[C@@H](NC(=O)C2(C(=O)NCc3cc(F)cc(F)c3)CCC2)N=C(c2ccccc2)c2ccccc21`, the IC50 at Gamma-secretase [1] turned out to be 115 nM. On Gamma-secretase [2], this molecule registered a Ki of 13.5 nM.

Take `CCCNC(=O)C(CC)(CC)C(=O)N[C@H]1N=C(c2ccccc2)c2ccccc2N(C)C1=O`: the Ki on Gamma-secretase [2] is 227 nM.

`CC(C)CC(F)(F)NC(=O)C1(C(=O)N[C@@H]2C(=O)N(C)c3ccccc3-c3ccccc32)CCC1` gave an IC50 against Gamma-secretase [1] of 280 nM. At Gamma-secretase [2], this molecule registered a Ki of 22 nM.

Turning to `CC(C)CNC(=O)C1(C(=O)N[C@H]2N=C(c3ccccc3)c3ccccc3N(C)C2=O)CCCC1`, the IC50 against Gamma-secretase [1] was determined as 19.5 nM. For the same molecule, the affinity on Gamma-secretase [2], expressed as Ki, was 6.2 nM.

As to `CC(C)CCNC(=O)C1(C(=O)N[C@H]2N=C(c3ccc(C(F)(F)F)cc3)c3ccccc3N(C)C2=O)CCC1`, the half-life in data set [3] is 13.2 h. The CL/F in data set [4] was 3.33 mL/min/kg. The molecule also gave a Vdss in the data set with Canis familiaris of 1.9 L/kg. The fraction unbound in [5] turned out to be 0.005. The 50% inhibitory concentration (IC50) against Gamma-secretase [1] is 14 nM. Further, the bioavailability in [6] is 61%. In [7], this molecule yielded a Cmax of 567 nM. Further, the Ki on Gamma-secretase [2] worked out at 4.9 nM.

Turning to `CC(C)CNC(=O)C1(C(=O)N[C@H]2N=C(c3ccc(C(F)(F)F)cc3)c3ccccc3N(C)C2=O)CCCC1`, the IC50 on Gamma-secretase [1] worked out at 12.5 nM. The same molecule yielded a Ki at Gamma-secretase [2] of 2 nM.

In turn, `CC(C)C[C@H](O)NC(=O)C1(C(=O)N[C@H]2N=C(c3ccc(C(F)(F)F)cc3)c3ccccc3N(C)C2=O)CCC1` showed a half-life in data set [3] of 6.5 h. Also, the IC50 on Gamma-secretase [8] and at Gamma-secretase [1] was 6.1 nM in each case. Further, the CL/F in data set [4] is 0.667 mL/min/kg. The Vdss with Canis familiaris came out at 0.2 L/kg. Also, in data set [5], the free fraction (fraction unbound) came to 0.017. For the same molecule, in [6], the bioavailability was 84%. For the same molecule, in [7], the concentration peaked (Cmax) at 2980 nM. On Gamma-secretase [2], this molecule gave a Ki of 2.1 nM.

For `CN1C(=O)[C@@H](NC(=O)C2(C(=O)NCc3cccs3)CCCC2)N=C(c2ccccc2)c2ccccc21`, the IC50 on Gamma-secretase [1] was 19 nM. Also, on Gamma-secretase [2], the Ki was 41 nM.

At Gamma-secretase [1], `CC(C)[C@H](O)NC(=O)C1(C(=O)N[C@@H]2C(=O)N(C)c3ccccc3-c3ccccc32)CCC1` registered an IC50 of 15 nM. The same molecule came in with a Ki on Gamma-secretase [2] of 3.9 nM.

At Gamma-secretase [1], `CCCNC(=O)C1(C(=O)N[C@H]2N=C(c3ccccc3)c3ccccc3N(C)C2=O)CCC1` gave an IC50 of 82 nM. Moreover, the affinity on Gamma-secretase [2], expressed as Ki, was 15 nM.

In turn, `CC(C)CCNC(=O)C1(C(=O)N[C@@H]2C(=O)N(C)c3ccccc3-c3ccccc32)CCC1` showed a half-life in data set [3] of 5.3 h. Moreover, the CL/F in data set [4] is 3.33 mL/min/kg. In the data set with Canis familiaris, this molecule came in with a Vdss of 0.9 L/kg. In data set [5], this molecule had a fraction unbound of 0.005. Besides, the IC50 against Gamma-secretase [1] was found to be 15 nM. In addition, the bioavailability in data set [6] was 23%. Besides, the concentration in [7] peaked (Cmax) at 172 nM. This molecule came in with a Ki at Gamma-secretase [2] of 4 nM.

For the molecule `CC(C)C[C@H](O)NC(=O)C1(C(=O)N[C@@H]2C(=O)N(C)c3ccccc3-c3ccccc32)CCC1`, at Gamma-secretase [1], the IC50 turned out to be 4.2 nM. Moreover, on Gamma-secretase [2], affinity was put at a Ki of 0.9 nM.

On Gamma-secretase [1], `CC(C)CNC(=O)C1(C(=O)N[C@@H]2C(=O)N(C)c3ccccc3-c3ccccc32)CCCC1` registered an IC50 of 26.1 nM. At Gamma-secretase [2], this molecule came in with a Ki of 3 nM.

`CN1C(=O)[C@@H](NC(=O)C2(C(=O)N[C@H](O)C3CCCCC3)CCC2)N=C(c2ccc(C(F)(F)F)cc2)c2ccccc21`: it took 280 nM to reach half-maximal inhibition against Gamma-secretase [1] (IC50). On Gamma-secretase [2], this molecule showed a Ki of 111 nM.

`CN1C(=O)[C@@H](NC(=O)C2(C(=O)NCCC3CCCC3)CCC2)N=C(c2ccc(C(F)(F)F)cc2)c2ccccc21` displayed an IC50 on Gamma-secretase [1] of 13 nM. Further, at Gamma-secretase [2], the Ki turned out to be 2.2 nM.

In [3], `CC(C)CNC(=O)C1(C(=O)N[C@@H]2C(=O)N(C)c3ccccc3-c3ccccc32)CCC1` showed a half-life of 4.6 h. In addition, the CL/F in data set [4] was 8.33 mL/min/kg. This molecule also showed a Vdss in the data set on Canis familiaris of 2.1 L/kg. For the same molecule, the fraction unbound in data set [5] was 0.001. The molecule also registered an IC50 on Gamma-secretase [1] of 5.8 nM. In data set [6], this molecule yielded a bioavailability of 47%. The Cmax in data set [7] came to 184 nM. Besides, at Gamma-secretase [2], the Ki stood at 1.4 nM.

The term IC50 denotes the concentration that inhibits the measured activity by half. The low end stands for greater potency, the high end for weaker potency. Broadly, the Ki is a dissociation constant, usually derived from enzyme kinetics or from competition with a known ligand. High values mean lower affinity, low ones higher affinity. What is called half-life is the time in which the quantity being followed falls by half. Low values mean fast loss, high ones slow loss. As a reminder, the CL/F is the apparent clearance, not corrected for the fraction that reaches the circulation. A word on the fraction unbound: it is the share of the substance not bound to proteins or other matrix. High values mean much free substance, low ones little free substance. A word on the bioavailability: it is dose-corrected exposure relative to a reference, in per cent. In general, Cmax refers to the peak of the concentration-time curve.

The values above are taken from ChEMBL document CHEMBL1148887, “Design and synthesis of benzoazepinone-derived cyclic malonamides and aminoamides as potent gamma-secretase inhibitors” (Bioorg Med Chem Lett, 2007).
